Measurements from publication PMC6290777, “Inhalation of the prodrug PI3K inhibitor CL27c improves lung function in asthma and fibrosis” (Nature Communications, 2018).

Tested on: AKT phosphorylation in IPF human lung fibroblasts
Assay: AKT phosphorylation of human lung fibroblasts
Type: cell-based
Conditions: IPF cells; CL27c 10 µM
Method: Human lung fibroblast cell culture
Two separate human lung fibroblast cell lines isolated from IPF patients were used: LL97a derived from a person (ATCC, Manassas, USA) and DHLF-IPF (#CC-7231, Lonza, Switzerland). Control cell lines were CCD-16Lu, obtained from a person that died of astrocytoma –a disease unrelated to IPF - (ATCC) and NHLF (#CC-2512; Lonza). LL97a and CCD-16Lu cells were cultured in Dulbecco's modified Eagles medium (DMEM, Sigma Aldrich, Dorset, UK). Media was supplemented with penicillin/streptomycin (100 U/ml, Thermo-Fischer, Germany) and 10% fetal bovine serum (FBS, Thermo-Fischer, Germany). Cells from Lonza were cultured in the FGMTM (#CC-3132, Lonza). […]
Caliper based assay, the reaction was terminated by addition of EDTA buffer. Substrate and product were separated and quantified electrophoretically using the microfluidic-based and the assay plate was read on Caliper LabChip 3000 Drug Discovery System from Caliper Life Sciences (Walthan, MA, USA). ADP Glo was another method of detection used for some kinase assays where data was obtained by quantifying the intensity of luminescence. For ADP Glo based assay, the reaction was terminated by applying the Promega ADP Glo Kinase Assay kit and the assay plate was read on a LJL Biosystems Analyst HT. […]

Compound: COC(=O)c1cccc(Cn2cc(-c3cccc4c(=O)cc(N5CCOCC5)[nH]c34)nn2)c1 [CL27c]
- serum-induced AKT phosphorylation: effectively blunted serum-induced AKT phosphorylation
